Measurements: PMC9851200, “Multiparameter phenotypic screening for endogenous TFEB and TFE3 translocation identifies novel chemical series modulating lysosome function” (Autophagy, 2022)

How the values were obtained:
Type in all cases: binding
[1] = target: kinases (KINOMEscan panel) (Homo sapiens, UniProt P42336, Q546K); conditions: kinase PIK3CA(Q546K); NEW KINOMEscan
[2] = target: kinases (KINOMEscan panel) (Homo sapiens, UniProt Q86V86); conditions: kinase PIM3; NEW KINOMEscan
[3] = target: T1, kinases (KINOMEscan panel) (Homo sapiens, UniProt Q9UL54); conditions: kinase TAOK2; NEW KINOMEscan
T1 sequence (Q9UL54 1-1235): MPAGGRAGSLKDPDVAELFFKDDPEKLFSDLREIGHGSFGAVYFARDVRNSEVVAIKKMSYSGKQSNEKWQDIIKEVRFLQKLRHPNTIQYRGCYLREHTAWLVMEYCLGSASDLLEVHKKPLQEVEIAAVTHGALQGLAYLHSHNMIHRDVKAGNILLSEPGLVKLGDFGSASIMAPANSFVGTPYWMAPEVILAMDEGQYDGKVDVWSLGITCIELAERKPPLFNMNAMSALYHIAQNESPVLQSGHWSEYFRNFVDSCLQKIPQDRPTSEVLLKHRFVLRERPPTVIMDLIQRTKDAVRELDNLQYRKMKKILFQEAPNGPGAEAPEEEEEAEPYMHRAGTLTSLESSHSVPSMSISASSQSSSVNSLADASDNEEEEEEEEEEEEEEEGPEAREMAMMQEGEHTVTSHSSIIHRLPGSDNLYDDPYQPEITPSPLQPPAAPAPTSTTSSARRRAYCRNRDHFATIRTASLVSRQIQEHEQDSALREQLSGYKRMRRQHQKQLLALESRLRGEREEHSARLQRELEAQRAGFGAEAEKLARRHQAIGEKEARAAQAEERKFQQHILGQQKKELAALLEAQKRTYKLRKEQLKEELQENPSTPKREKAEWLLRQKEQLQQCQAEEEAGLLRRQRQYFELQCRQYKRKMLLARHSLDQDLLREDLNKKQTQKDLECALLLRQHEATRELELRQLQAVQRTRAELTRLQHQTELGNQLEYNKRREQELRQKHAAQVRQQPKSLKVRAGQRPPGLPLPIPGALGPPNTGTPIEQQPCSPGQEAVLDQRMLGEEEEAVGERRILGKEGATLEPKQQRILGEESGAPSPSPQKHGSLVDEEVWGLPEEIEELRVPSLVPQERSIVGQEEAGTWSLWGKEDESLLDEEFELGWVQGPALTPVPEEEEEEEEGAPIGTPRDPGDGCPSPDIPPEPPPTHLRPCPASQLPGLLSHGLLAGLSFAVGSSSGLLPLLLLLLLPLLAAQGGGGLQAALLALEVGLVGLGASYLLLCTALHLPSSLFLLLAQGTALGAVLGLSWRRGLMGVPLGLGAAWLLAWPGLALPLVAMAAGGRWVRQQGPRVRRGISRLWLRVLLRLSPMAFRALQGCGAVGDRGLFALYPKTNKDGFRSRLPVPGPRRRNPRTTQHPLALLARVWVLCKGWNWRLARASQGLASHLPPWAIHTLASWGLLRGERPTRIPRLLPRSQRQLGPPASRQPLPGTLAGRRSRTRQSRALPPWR

[4] = target: T2, kinases (KINOMEscan panel) (Homo sapiens, UniProt Q9H2K8); conditions: kinase TAOK3; NEW KINOMEscan
T2 sequence (Q9H2K8 1-898): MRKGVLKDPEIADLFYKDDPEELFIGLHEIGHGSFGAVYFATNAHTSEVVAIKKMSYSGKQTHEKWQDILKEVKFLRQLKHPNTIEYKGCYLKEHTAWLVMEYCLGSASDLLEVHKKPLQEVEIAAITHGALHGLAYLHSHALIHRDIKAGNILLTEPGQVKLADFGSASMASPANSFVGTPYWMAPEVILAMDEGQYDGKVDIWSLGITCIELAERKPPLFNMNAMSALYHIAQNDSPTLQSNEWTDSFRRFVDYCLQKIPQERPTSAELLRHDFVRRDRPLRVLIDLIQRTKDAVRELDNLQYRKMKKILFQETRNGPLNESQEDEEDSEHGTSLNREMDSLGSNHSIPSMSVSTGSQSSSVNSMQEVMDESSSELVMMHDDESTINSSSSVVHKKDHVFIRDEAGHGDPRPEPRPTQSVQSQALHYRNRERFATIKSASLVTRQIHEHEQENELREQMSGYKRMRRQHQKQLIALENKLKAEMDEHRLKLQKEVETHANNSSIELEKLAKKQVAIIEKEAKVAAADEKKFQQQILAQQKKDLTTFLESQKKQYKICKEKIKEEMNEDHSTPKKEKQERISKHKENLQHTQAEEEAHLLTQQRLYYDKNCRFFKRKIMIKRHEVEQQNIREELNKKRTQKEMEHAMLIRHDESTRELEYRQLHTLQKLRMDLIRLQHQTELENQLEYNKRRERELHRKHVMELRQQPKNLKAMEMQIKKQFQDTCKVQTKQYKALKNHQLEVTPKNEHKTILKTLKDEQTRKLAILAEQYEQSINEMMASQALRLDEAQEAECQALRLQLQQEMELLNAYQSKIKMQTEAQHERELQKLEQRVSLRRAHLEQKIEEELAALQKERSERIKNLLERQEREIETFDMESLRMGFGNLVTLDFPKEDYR

[5] = target: kinases (KINOMEscan panel) (Homo sapiens, UniProt Q9BVS4); conditions: RIOK2; NEW KINOMEscan
kinases (KINOMEscan panel) (Homo sapiens, UniProt Q9BVS4), sequence (Q9BVS4 whole entry): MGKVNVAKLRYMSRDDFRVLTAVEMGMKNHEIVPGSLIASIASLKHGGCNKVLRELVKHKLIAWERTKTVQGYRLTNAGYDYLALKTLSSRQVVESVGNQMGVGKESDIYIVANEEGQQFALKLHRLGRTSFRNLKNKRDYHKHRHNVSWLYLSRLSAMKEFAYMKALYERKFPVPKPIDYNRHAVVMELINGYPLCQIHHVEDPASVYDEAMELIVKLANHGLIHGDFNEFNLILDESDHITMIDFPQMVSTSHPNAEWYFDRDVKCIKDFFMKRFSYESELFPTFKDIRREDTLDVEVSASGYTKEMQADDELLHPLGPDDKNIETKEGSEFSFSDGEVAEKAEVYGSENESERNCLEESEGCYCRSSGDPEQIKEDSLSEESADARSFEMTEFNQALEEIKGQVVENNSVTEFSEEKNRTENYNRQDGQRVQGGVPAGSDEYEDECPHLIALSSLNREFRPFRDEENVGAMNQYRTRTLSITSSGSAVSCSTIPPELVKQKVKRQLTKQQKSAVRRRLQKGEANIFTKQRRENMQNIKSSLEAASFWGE

kinases (KINOMEscan panel) (Homo sapiens, UniProt P42336, Q546K), sequence (P42336 whole entry Q546K): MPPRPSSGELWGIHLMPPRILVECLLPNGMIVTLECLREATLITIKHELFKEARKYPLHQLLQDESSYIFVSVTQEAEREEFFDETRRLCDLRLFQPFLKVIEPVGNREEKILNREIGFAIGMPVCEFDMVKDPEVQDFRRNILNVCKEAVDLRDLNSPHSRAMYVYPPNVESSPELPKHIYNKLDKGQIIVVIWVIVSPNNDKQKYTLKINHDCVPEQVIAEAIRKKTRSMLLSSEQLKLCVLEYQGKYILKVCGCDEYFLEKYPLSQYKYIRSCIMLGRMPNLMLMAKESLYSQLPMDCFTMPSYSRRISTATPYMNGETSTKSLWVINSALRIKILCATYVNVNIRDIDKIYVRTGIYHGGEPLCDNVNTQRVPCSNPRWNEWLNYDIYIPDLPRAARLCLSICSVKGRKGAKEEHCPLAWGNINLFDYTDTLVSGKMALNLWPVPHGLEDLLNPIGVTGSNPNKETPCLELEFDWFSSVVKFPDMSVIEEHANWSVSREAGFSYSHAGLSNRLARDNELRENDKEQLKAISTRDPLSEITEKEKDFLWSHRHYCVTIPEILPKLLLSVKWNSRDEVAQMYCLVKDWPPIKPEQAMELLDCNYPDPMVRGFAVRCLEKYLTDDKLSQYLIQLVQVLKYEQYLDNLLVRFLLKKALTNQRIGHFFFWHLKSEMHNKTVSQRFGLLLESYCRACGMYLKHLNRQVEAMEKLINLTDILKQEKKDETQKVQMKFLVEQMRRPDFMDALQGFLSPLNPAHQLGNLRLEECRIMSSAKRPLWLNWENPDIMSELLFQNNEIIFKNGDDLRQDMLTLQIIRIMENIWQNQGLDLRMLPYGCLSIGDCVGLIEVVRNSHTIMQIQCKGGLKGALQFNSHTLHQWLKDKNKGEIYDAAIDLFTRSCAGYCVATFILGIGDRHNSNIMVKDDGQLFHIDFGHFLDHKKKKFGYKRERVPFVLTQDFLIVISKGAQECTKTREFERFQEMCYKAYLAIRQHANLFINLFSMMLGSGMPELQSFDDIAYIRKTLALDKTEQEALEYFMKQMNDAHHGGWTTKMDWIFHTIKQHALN

Structure (SMILES)	KINOMEscan PIK3CA(Q546K) [1]	KINOMEscan PIM3 [2]	KINOMEscan TAOK2 [3]	KINOMEscan TAOK3 [4]	KINOMEscan RIOK2 [5]
Cc1cccc(-c2nc(Nc3ccc4nn(C)cc4c3)c3ccccc3n2)n1 [NK167]	0	0	19	4	3
Cc1cccc(-c2nc(N(C)c3ccc4ncsc4c3)c3ccccc3n2)n1 [NK-161]	7	0	20	13	3
